Here are results for eight compounds from ChEMBL document CHEMBL4004788, “Cyclin-Dependent Kinase (CDK) Inhibitors: Structure-Activity Relationships and Insights into the CDK-2 Selectivity of 6-Substituted 2-Arylaminopurines” (J Med Chem, 2017).

Active and inactive are the calls of the source. The calls are words filed in the database; no cut-off is given here.

Data set [1] is described as follows: Chemical stability of the compound. It counts as physicochemical.
Data set [2] deals with Cyclin-dependent kinase 2 (Homo sapiens, UniProt P24941).
Description: Inhibition of CDK2 (unknown origin)
The subject of data set [3] is SJSA-1. Kind of data set: Growth inhibition of Rb-proficient human SJSA1 cells after 120 hrs by SRB assay. It counts as functional.
For data set [4], the system named is Calu-6. Description: Growth inhibition of Rb-proficient human Calu6 cells after 120 hrs by SRB assay. It counts as functional.
Data set [5] has as its system Skut1B. Kind of data set: Growth inhibition of Rb-proficient human SK-UT-1B cells after 120 hrs by SRB assay. It counts as functional.
For data set [6], the system named is MDA-MB-231. Description: Growth inhibition of Rb-proficient human MDA-MB-231 cells after 120 hrs by SRB assay. It counts as functional.
The subject of data set [7] is A-375. Kind of data set: Growth inhibition of Rb-proficient human A375 cells after 120 hrs by SRB assay. It counts as functional.
The subject of data set [8] is MDA-MB-231. Kind of data set: Growth inhibition of Rb-proficient human MDA-MB-231 cells at 30 uM after 120 hrs by SRB assay. It counts as functional, cell-based.
Data set [9] has as its system A-375. Kind of data set: Growth inhibition of Rb-proficient human A375 cells at 30 uM after 120 hrs by SRB assay. It counts as functional, cell-based.
Data set [10] relates to Calu-6. Description: Growth inhibition of Rb-proficient human Calu6 cells at 30 uM after 120 hrs by SRB assay. It counts as functional, cell-based.
Data set [11] concerns Skut1B. Kind of data set: Growth inhibition of Rb-proficient human SK-UT-1B cells at 30 uM after 120 hrs by SRB assay. It counts as functional, cell-based.
The test system of data set [12] is SJSA-1. Description: Growth inhibition of Rb-proficient human SJSA1 cells at 30 uM after 120 hrs by SRB assay. It counts as functional, cell-based.
For another data set, the species on record is Homo sapiens. Description: Inhibition of Cdk4/Cyclin D (unknown origin) relative to untreated control. The conditions noted are these: concentration not given here.

On to `COc1nc(N)nc2nc[nH]c12` [METHYLGUANINE], for which the Stability entry in data set [1] is “Unstable”.

Regarding `CC[C@@H](C)Oc1nc(Nc2ccc(S(N)(=O)=O)cc2)nc(N)c1C=O`, the IC50 in data set [2] turned out to be 0.0008 µM.

Consider `NS(=O)(=O)c1ccc(Nc2nc(OCC3CCCCC3)c3cc[nH]c3n2)cc1`, for which the “growth inhibition (GI)” value in the data set with SJSA-1 [3], in the data set with Calu-6 [4], in the data set on Skut1B [5], in the data set with MDA-MB-231 [6] and in the data set with A-375 [7] was “Dose-dependent effect” throughout.

Turning to `NS(=O)(=O)c1ccc(Nc2nc(OCC3CCCCC3)c3cn[nH]c3n2)cc1`, the “growth inhibition (GI)” value in the data set on SJSA-1 [3], with Calu-6 [4], with Skut1B [5], in the data set with MDA-MB-231 [6] and in the data set on A-375 [7] was “Dose-dependent effect” throughout.

As to `CCC(C)Oc1nc(N)nc2[nH]cnc12` (centres undefined), the IC50 in data set [2] came out at 49 µM.

`NS(=O)(=O)c1ccc(Nc2nc(OCC3CCCCC3)c3nc[nH]c3n2)cc1`: the “growth inhibition (GI)” value in the data set with SJSA-1 [3], in the data set with Calu-6 [4], with Skut1B [5], with MDA-MB-231 [6] and with A-375 [7] was “Active” in each case.

Take `NS(=O)(=O)c1ccc(Nc2nc(-c3cccc(-c4ccccc4)c3)c3nc[nH]c3n2)cc1`: the “growth inhibition (GI)” value in the data set with MDA-MB-231 [8], in the data set on A-375 [9], in the data set with Calu-6 [10], with Skut1B [11] and in the data set on SJSA-1 [12] was “inactive” in each case.

In the data set filed under Homo sapiens, `Nc1nc(OCC2CCCCC2)c2cn[nH]c2n1` gave an inhibition of 0%.
